Source: patent US20100056507A1, “PHENYL DERIVATIVES AND THEIR USE AS A MEDICAMENT” (IPSEN PHARMA S.A.S., priority 2006, published 2010)
Structures can show the parent of a compound that is named as a salt. Where two headings read alike, the source gives them in different places.

Biological target: T1, human CB2 receptors (Homo sapiens, UniProt P34972)
T1 construct: expressed in transfected cells; membranes used
Test: Affinity for the human CB2 cannabinoid receptors: inhibition of [3H]-CP55940 binding to transfected CHO-K1 cell membranes
Conditions: [3H]-CP55940 1 nM, CHO-K1 membranes expressing human CB2, Cheng-Prusoff correction
Method: The affinity of the compounds of the invention for the human CB2 receptors is determined by measuring the inhibition of the binding of [^3H]-CP55940 to transfected CHO-K1 cell membrane preparations.
The cells are collected with 0.5 mM of EDTA and centrifuged at 500 g for 5 minutes at 4° C. The pellet is re-suspended in phosphate buffered saline medium (PBS) and centrifuged at 500 g for 5 minutes at 4° C. The pellet is re-suspended in a Tris 50 mM buffer medium at pH 7.4 and centrifuged at 500 g for 5 minutes at 4° C. The cells are lysed by sonication and centrifuged at 39,000 g for 10 minutes at 4° C. The pellet is re-suspended in the Tris 50 mM buffer medium at pH 7.4 and centrifuged at 50,000 g for 10 minutes at 4° C. The membranes obtained in this last pellet are stored at −80° C.
Measurement of the competitive inhibition of the binding of the [^3H]-CP55940 to the CB2 receptors is carried out in duplicate using 96-well polypropylene plates. The cell membranes (10 μg of proteins/well) are incubated with the [^3H]-CP55940 (1 nM) for 60 minutes at 25° C. in a Tris-HCl 50 mM buffer medium, pH 7.4, comprising 0.1% bovine serum albumin (BSA), 5 mM of MgCl2, and 50 μg/ml of bacitracin.
The filters are washed with Tris-HCl 50 mM buffer, pH 7.4 at 0-4° C. and the radioactivity present is determined using a counter (Packard Top Count).
The specific binding is obtained by subtracting the non-specific binding (determined in the presence of 0.1 μM of WIN55212-2 from the total binding). The data are analyzed by computer-assisted non-linear regression (MDL). For each test, a Cheng-Prusoff correction is made in order to convert the IC50 to the inhibition constant, Ki.
where [L] is the concentration of the radioligand used in the test and Kd is the radioligand equilibrium disassociation constant.

T1 sequence (P34972 whole entry): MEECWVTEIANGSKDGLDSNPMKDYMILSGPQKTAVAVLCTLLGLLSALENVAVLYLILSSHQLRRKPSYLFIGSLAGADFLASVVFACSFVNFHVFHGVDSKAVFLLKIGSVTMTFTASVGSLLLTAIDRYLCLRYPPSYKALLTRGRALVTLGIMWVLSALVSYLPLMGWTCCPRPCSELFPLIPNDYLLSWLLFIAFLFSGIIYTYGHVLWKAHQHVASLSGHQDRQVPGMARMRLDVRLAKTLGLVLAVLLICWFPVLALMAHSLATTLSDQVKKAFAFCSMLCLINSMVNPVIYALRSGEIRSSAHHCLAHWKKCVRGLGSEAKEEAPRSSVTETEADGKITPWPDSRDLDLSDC

Compound	Ki (read-out: Ki < 0.5 μM) [µM]	Ki (read-out: Ki < 5 μM) [µM]
CCNC(=S)Nc1ccc(CCOC(=O)c2ccc3c(c2)C(C)(C)CCC3(C)C)cc1 [Example 76, 2-(4-{[(ethylamino)carbonothioyl]amino}phenyl)ethyl 5,5,8,8-tetramethyl-5,6,7,8-tetrahydronaphthalene-2-carboxylate]	< 0.5	< 5
CC(C)(C)c1cc(-c2nnc(CCc3ccc(/N=C(/N)c4cccs4)cc3)o2)cc(C(C)(C)C)c1 [Example 22]	< 0.5	< 5
CCC(C)C(=O)Nc1ccc(CCOC(=O)c2ccc3c(c2)C(C)(C)CCC3(C)C)cc1 (stereo not drawn) [Example 95]	< 0.5	< 5
CC1(C)CCC(C)(C)c2cc(C(=O)OCCc3ccc(NS(C)(=O)=O)cc3)ccc21 [Example 69, 2-{4-[(methylsulphonyl)amino]phenyl}ethyl 5,5,8,8-tetramethyl-5,6,7,8-tetrahydronaphthalene-2-carboxylate]	< 0.5	< 5
O=C(OCCc1ccc(NC(=O)C2CCC2)cc1)c1ccc2c(c1)OCCO2 [Example 4]	–	< 5
CC1(C)CCC(C)(C)c2cc(-c3coc(CCc4ccc(NC(=O)C5CCC5)cc4)n3)ccc21 [Example 39, N-(4-{2-[4-(5,5,8,8-tetramethyl-5,6,7,8-tetrahydronaphthalen-2-yl)-1,3-oxazol-2-yl]ethyl}phenyl)cyclobutanecarboxamide]	< 0.5	< 5
CC1(C)CCC(C)(C)c2cc(C(=O)OCCc3ccc(NC(=O)CC4CCCC4)cc3)ccc21 [Example 66]	< 0.5	< 5
CC1(C)CCC(C)(C)c2cc(-c3nnc(CCc4ccc(/N=C(/N)c5cccs5)cc4)o3)ccc21 [Example 6, N′-(4-{2-[5-(5,5,8,8-tetramethyl-5,6,7,8-tetrahydronaphthalen-2-yl)-1,3,4-oxadiazol-2-yl]ethyl}phenyl)thiophene-2-carboximidamide hydrochloride]	–	< 5
CC(C)(C)c1cc(-c2nnc(NCc3ccc(NC(=O)C4CCC4)cc3)o2)cc(C(C)(C)C)c1 [Example 23]	–	< 5
CC1(C)CC(C)(C)c2cc(C(=O)OCCc3ccc(NC(=O)C4CCC4)cc3)ccc21 [Example 37]	< 0.5	< 5
CCCNC(=O)Nc1ccc(CCc2nc(-c3ccc4c(c3)C(C)(C)CCC4(C)C)co2)cc1 [Example 41]	< 0.5	< 5
COCCNC(=S)Nc1ccc(CCOC(=O)c2ccc3c(c2)C(C)(C)CCC3(C)C)cc1 [Example 79]	< 0.5	< 5
CCCNC(=O)Nc1ccc(CCc2nnc(-c3cc(C(C)(C)C)cc(C(C)(C)C)c3)o2)cc1 [Example 18]	< 0.5	< 5
CC(C)(C)c1cc(-c2nnc(Cc3ccc(NC(=O)C4CCC4)cc3)o2)cc(C(C)(C)C)c1 [Example 12]	< 0.5	< 5
CC(C)(C)C(=O)Nc1ccc(CCOC(=O)c2ccc3c(c2)C(C)(C)CCC3(C)C)cc1 [Example 57]	< 0.5	< 5
CC1(C)CCC(C)(C)c2cc(-c3nc(CCc4ccc(NC(=O)C5CCC5)cc4)no3)ccc21 [Example 98]	< 0.5	< 5
O=C(OCCc1ccc(NC(=O)C2CCC2)cc1)c1ccc2c(c1)OCO2 [Example 34]	–	< 5
CC(C)(C)c1cc(-c2nnc(CCc3ccc(NC(=O)C4CCC4)cc3)s2)cc(C(C)(C)C)c1 [Example 46]	< 0.5	< 5
CC1(C)CCC(C)(C)c2cc(C(=O)OCCc3ccc(NC(=O)C4CCOC4)cc3)ccc21 (stereo not drawn) [Example 92]	< 0.5	< 5
C=CCNC(=O)Nc1ccc(CCc2nnc(-c3ccc4c(c3)C(C)(C)CCC4(C)C)s2)cc1 [Example 52]	< 0.5	< 5
CC1(C)CCC(C)(C)c2cc(C(=O)OCCc3ccc(NC(=O)Cc4cccs4)cc3)ccc21 [Example 68]	< 0.5	< 5
C=CCNC(=O)Nc1ccc(CNc2nnc(-c3ccc4c(c3)C(C)(C)CCC4(C)C)o2)cc1 [Example 26]	< 0.5	< 5
CC(C)(C)c1cc(-c2nc(Cc3ccc(/N=C(/N)c4cccs4)cc3)no2)cc(C(C)(C)C)c1 [Example 5]	< 0.5	< 5
CC(C)(C)c1cc(-c2nc(Cc3ccc(NC(=O)C4CCC4)cc3)no2)cc(C(C)(C)C)c1 [Example 19]	< 0.5	< 5
CC1(C)CCC(C)(C)c2cc(C(=O)OCCc3ccc(NS(=O)(=O)C4CC4)cc3)ccc21 [Example 72]	< 0.5	< 5

Compound	Ki (read-out: Ki < 0.5 μM) [µM]	Ki (read-out: Ki < 5 μM) [µM]
COCC(=O)Nc1ccc(CCOC(=O)c2ccc3c(c2)C(C)(C)CCC3(C)C)cc1 [Example 85]	< 0.5	< 5
CCCS(=O)(=O)Nc1ccc(CCOC(=O)c2ccc3c(c2)C(C)(C)CCC3(C)C)cc1 [Example 71]	< 0.5	< 5
CC1CC1C(=O)Nc1ccc(CCOC(=O)c2ccc3c(c2)C(C)(C)CCC3(C)C)cc1 (stereo not drawn) [Example 88]	< 0.5	< 5
Cc1cc2c(cc1C(=O)OCCc1ccc(NC(=O)C3CCC3)cc1)C(C)(C)CCC2 [Example 35]	< 0.5	< 5
C=CCNC(=O)Nc1ccc(CCc2nnc(-c3cc(C(C)(C)C)cc(C(C)(C)C)c3)o2)cc1 [Example 17]	< 0.5	< 5
CCCC(=O)Nc1ccc(CCOC(=O)c2ccc3c(c2)C(C)(C)CCC3(C)C)cc1 [Example 94]	< 0.5	< 5
C=CCNC(=S)Nc1ccc(CCOC(=O)c2ccc3c(c2)C(C)(C)CCC3(C)C)cc1 [Example 78]	< 0.5	< 5
CC1(C)CCC(C)(C)c2cc(C(=O)OCCc3ccc(NC(=O)C4CC4(C)C)cc3)ccc21 (stereo not drawn) [Example 89]	< 0.5	< 5
CC(C)(C)c1cc(-c2nnc(CCc3ccc(NC(=O)C4CCC4)cc3)o2)cc(C(C)(C)C)c1 [Example 16]	< 0.5	< 5
C=CCNC(=O)Nc1ccc(Cc2noc(-c3cc(C(C)(C)C)cc(C(C)(C)C)c3)n2)cc1 [Example 20]	< 0.5	< 5
CC1(C)CCNc2ccc(C(=O)OCCc3ccc(NC(=O)C4CCC4)cc3)cc21 [Example 50]	< 0.5	< 5
C=CCNC(=O)Nc1ccc(CCc2nnc(-c3ccc4c(c3)C(C)(C)CCC4(C)C)o2)cc1 [Example 32]	< 0.5	< 5
CC(C)CC(=O)Nc1ccc(CCOC(=O)c2ccc3c(c2)C(C)(C)CCC3(C)C)cc1 [Example 58]	< 0.5	< 5
CC1(C)CCC(C)(C)c2cc(C(=O)OCCc3ccc(NC(=O)CC4CC4)cc3)ccc21 [Example 91]	< 0.5	< 5
CC1(C)CCc2cc(C(=O)OCCc3ccc(NC(=O)C4CCC4)cc3)ccc2O1 [Example 42]	< 0.5	< 5
CC(=O)Nc1ccc(CCOC(=O)c2ccc3c(c2)C(C)(C)CCC3(C)C)cc1 [Example 54]	< 0.5	< 5
O=C(OCCc1ccc(NC(=O)C2CCC2)cc1)c1ccc2c(c1)CCC2 [Example 11]	< 0.5	< 5
CC1(C)CCC(C)(C)c2cc(-c3nnc(CCc4ccc(NC(=O)C5CCC5)cc4)o3)ccc21 [Example 31]	< 0.5	< 5
CC1(C)CCC(C)(C)c2cc(C(=O)OCCc3ccc(NC(=O)NC4CCC4)cc3)ccc21 [Example 97]	< 0.5	< 5
C=CCCC(=O)Nc1ccc(CCOC(=O)c2ccc3c(c2)C(C)(C)CCC3(C)C)cc1 [Example 62]	< 0.5	< 5
C=CCNC(=O)Nc1ccc(CCc2nnc(-c3cc(C(C)(C)C)cc(C(C)(C)C)c3)s2)cc1 [Example 47]	< 0.5	< 5
CC(C)(C)NC(=O)Nc1ccc(CCOC(=O)c2ccc3c(c2)C(C)(C)CCC3(C)C)cc1 [Example 74]	< 0.5	< 5
CCCNC(=O)Nc1ccc(CCc2nnc(-c3ccc4c(c3)C(C)(C)CCC4(C)C)s2)cc1 [Example 53]	< 0.5	< 5
O=C(OCCc1ccc(NC(=O)C2CCC2)cc1)c1ccc2c(c1)CCCC2 [Example 15]	< 0.5	< 5
CCC(=O)Nc1ccc(CCOC(=O)c2ccc3c(c2)C(C)(C)CCC3(C)C)cc1 [Example 55]	< 0.5	< 5
